# Results as given in patent US6294562A, “Salts of ethyl 3-(2-(4-(4-amino-imino-methyl)phenyl)-4-methyl-2,5-dioxo-imidazolidin-1-yl )acetylamino)-3-phenylpropionate” (Hoechst Aktiengesellschaft, priority 1996, dated 2001).
# Tests used:
# [1] = Solid state form and hygroscopicity, as stated in the description; format: physicochemical; details: hydrochloride salts
# [2] = Determination of water vapor sorption (automatic two-limbed microbalance, 25° C.); format: physicochemical
# Procedure: The water uptake of a substance was determined using an automatic two-limbed microbalance which is operated in vacuo or in an atmosphere which has a defined composition or a defined pressure. The dry sample is located on one side of the balance and a taring weight is located on the other side. A water vapor atmosphere, whose pressure was increased stepwise, was generated in the weighing space. The increase in weight of the sample as a function of the water vapor pressure was recorded. The measurement was carried out at a constant temperature of 25° C.
# The weighing space was first of all evacuated to constant weight and the starting weight of the sample was determined. A defined quantity of water vapor was then passed into the evacuated weighing space through an inlet valve. In the experiment which is reproduced below, the water vapor pressure which was set in this first step corresponds, at the measuring temperature of 25° C., to a relative atmospheric humidity of 4.7%. When constant weight was once again reached after passing in the water vapor, i.e. when the sample was in equilibrium with the water vapor atmosphere, the increase in weight of the sample was recorded. After that, the water vapor pressure was increased in several steps by passing in further water vapor (with each water vapor pressure corresponding to a defined relative atmospheric humidity at the measuring temperature of 25° C.). In each step, the increase in weight of the sample was recorded after constant weight had been reached. When ethyl (S)-3-(2-((S)-4-(4-(amino-imino-methyl)phenyl)-4-methyl-2,5-dioxo-imidazolidin-1-yl)-acetylamino)-3-phenylpropionate hydrogen maleate was examined, the following weight increases, based on the starting weight of the sample, were observed.
# [3] = tested on: coronary cyclic flow variations (recurrent formation of platelet rich thrombi); assay: Coronary cyclic flow variations in dogs (model of unstable angina); format: in vivo, dog
# Description: (§1) Dogs of either sex (20-35 kg) were anesthetized (Ketamine plus sodium pentobarbital infusion), ventilated and instrumented for the measurement of hemodynamic parameters (peripheral and left ventricular blood pressure, myocardial contractility, heart rate), and ECG. Blood gases and hematocrit were kept constant by infusion of electrolytes. After a left thoracotomy, the heart was exposed and the left circumflex coronary artery (LCX) was instrumented with an electromagnetic flow probe to measure mean coronary blood flow. Distal to the flow probe, the LCX was shortly squeezed with forceps in order to damage the endothelium, and a small concentrically constricting plastic cylinder was placed onto the damaged site (between 1.0 and 1.7 mm inner diameter, depending on the size of the LCX, and 4 mm length). The constrictor abolished the reactive hyperemic response to a 10 second occlusion of the LCX and initiated the appearance of flow cycles (approx. 10 per hour) resulting from recurrent formation of platelet rich thrombi at the stenosed site. After 60 min of regular cyclic flow variations, the test compounds were administered by intravenous or intraduodenal bolus application. Cyclic flow variations were further monitored for at least 2 to 5 hours. Percent inhibition of coronary thrombotic cyclic flow variations was calculated by comparison of the mean number of cyclic flow variations per hour before and after administration of the compound in 5 to 8 animals. In control animals, the number of cyclic flow variations per hour remained constant for several hours. (References: Folts, J. D. et al. (1976), Circulation 54: 365-370; Just, M. et al. (1989), J. Cardiovasc. Pharmacol. 14 (suppl. 11): S 129-136)
# When ethyl (S)-3-(2-((S)-4-(4-(amino-imino-methyl)phenyl)-4methyl-2,5-dioxoimidazolidin-1-yl)acetylamino)-3-phenylpropionate hydrogen maleate was examined the following results were obtained. Given is the percent reduction of the number of stenosis induced coronary cyclic flow variations (CFV's) per hour in the first, the second and the third hour after administration of the test compound as compared to the predrug period. The dose is given in mg per kg of body weight.
# [4] = tested on: ADP-induced ex vivo platelet aggregation; assay: Ex vivo platelet aggregation inhibition in dogs, ADP-induced; set-up: species or system dog; details: for Inhibition of aggregation: ADP
# Procedure: (§2) Dogs of either sex (mixed breed of Labrador/Harrier, body weight 21-28 kg) were fasted overnight. The test compounds were administered orally in gelatine capsules or intravenously. Before administration of the test compounds and several times during 24 hours thereafter, 20 ml of blood were withdrawn from the cephalic vein into acid citrate dextrose (9+1volumes). Platelet rich plasma (PRP) was obtained by centrifugation. Platelet aggregation was measured in PRP after addition of either ADP (3-30 μmol/l) or collagen (0.3-10 μg/ml) plus epinephrine (10 μM) at 37° C. in an aggregometer (BioData). Percent of maximal aggregation before and after drug administration was compared. The percent inhibition of aggregation at the lowest concentration of the agonist which induced irreversible maximal aggregation is given. In addition, the cutaneous bleeding time was measured at the shaved inner forearm using the Simplate® 1 device at the times of blood collection. Percent prolongation of bleeding time after drug administration as compared to the predrug value is calculated.
# (§3) When ethyl (S)-3-(2-( (S)-4-(4-(amino-imino-methyl) phenyl)-4-methyl-2,5-dioxoimidazolidin-1-yl)acetylamino)-3-phenylpropionate hydrogen maleate was examined the following results were obtained. Given is the percent inhibition of platelet aggregation 1 h, 4 h, 8 h and 24 h after administration of the test substance. The dose is given in mg per kg body weight. n is the number of dogs tested.
# [5] = tested on: collagen induced ex vivo platelet aggregation; assay: Ex vivo platelet aggregation inhibition in dogs, collagen induced; set-up: species or system dog; details: collagen plus epinephrine
# Procedure: as §2, §3
# [6] = Cutaneous bleeding time in dogs (Simplate 1 device); format: in vivo, dog; details: for maximal prolongation of bleeding time: p<0.05
# Procedure: as §2
# [7] = Hemodynamic parameters in the coronary cyclic flow variation model in dogs; format: in vivo, dog; details: all hemodynamic parameters, intravenous or intraduodenal
# Description: as §1, with “After 60 min of regular cyclic flow variations, the test compounds were administered by intravenous or intraduodenal bolus application.” left out, “In control animals, the number of cyclic flow variations per hour remained constant for several hours. (References: Folts, J. D. et al. (1976), Circulation 54: 365-370; Just, M. et al. (1989), J. Cardiovasc. Pharmacol. 14 (suppl. 11): S 129-136)” left out
# [8] = 0.5 mg/kg intravenously, n=6, after 1 h
# [9] = 0.5 mg/kg intravenously, n=6, after 4 h
# [10] = 0.5 mg/kg intravenously, n=6, after 8 h
# [11] = 0.5 mg/kg intravenously, n=6, after 24 h
# [12] = 0.5 mg/kg orally, n=6, after 1 h
# [13] = 0.5 mg/kg orally, n=6, after 4 h
# [14] = 0.5 mg/kg orally, n=6, after 8 h
# [15] = 0.5 mg/kg orally, n=6, after 24 h
# [16] = 1 mg/kg orally, n=6, after 24 h
# [17] = 2 mg/kg orally, n=8, after 24 h
smiles,measurement,setting,value
"CCOC(=O)C[C@@H](NC(=O)CN1C(=O)N[C@@](C)(c2ccc(C(=N)N)cc2)C1=O)c1ccccc1 [ethyl (R)-3-(2-((S)-4-(4-(amino-imino-methyl)phenyl)-4-methyl-2,5-dioxoimidazolidin-1-yl)acetylamino)-3-phenylpropionate]",solid state form,[1],amorphous and cannot be obtained in the crystalline state
"CCOC(=O)C[C@H](NC(=O)CN1C(=O)N[C@@](C)(c2ccc(C(=N)N)cc2)C1=O)c1ccccc1 [ethyl (S)-3-(2-((S)-4-(4-(amino-imino-methyl)phenyl)-4-methyl-2,5-dioxoimidazolidin-1-yl)acetylamino)-3-phenylpropionate]",solid state form,[1],amorphous and cannot be obtained in the crystalline state
"CCOC(=O)C[C@H](NC(=O)CN1C(=O)N[C@](C)(c2ccc(C(=N)N)cc2)C1=O)c1ccccc1 [ethyl (S)-3-(2-((R)-4-(4-(amino-imino-methyl)phenyl)-4-methyl-2,5-dioxoimidazolidin-1-yl)-acetylamino)-3-phenylpropionate]",solid state form,[1],amorphous and cannot be obtained in the crystalline state
"CCOC(=O)C[C@H](NC(=O)CN1C(=O)N[C@@](C)(c2ccc(C(=N)N)cc2)C1=O)c1ccccc1.O=C(O)/C=C\C(=O)O [Ethyl (S)-3-(2-((S)-4-(4-(amino-imino-methyl)phenyl)-4-methyl-2,5-dioxo-imidazolidin-1-yl)acetylamino)-3-phenylpropionate hydrogen maleate]",hygroscopicity,[2]; 25° C.,not hygroscopic
same,increase in weight,[2]; relative atmospheric humidity of approx. 80%,approx. 0.5%
same,Increase in weight of the sample,"[2]; relative humidity 4.7%, 25° C.",0.06%
same,Increase in weight of the sample,"[2]; relative humidity 18.5%, 25° C.",0.11%
same,Increase in weight of the sample,"[2]; relative humidity 32.8%, 25° C.",0.16%
same,Increase in weight of the sample,"[2]; relative humidity 49.6%, 25° C.",0.23%
same,Increase in weight of the sample,"[2]; relative humidity 64.7%, 25° C.",0.33%
same,Increase in weight of the sample,"[2]; relative humidity 75.5%, 25° C.",0.43%
same,Increase in weight of the sample,"[2]; relative humidity 82.1%, 25° C.",0.54%
same,Reduction of CFV's,"[3]; 0.1 mg/kg intraduodenally, first hour",39%
same,Reduction of CFV's,"[3]; 0.1 mg/kg intraduodenally, second hour",62%
same,Reduction of CFV's,"[3]; 0.1 mg/kg intraduodenally, third hour",74%
same,Reduction of CFV's,"[3]; 0.1 mg/kg intravenously, first hour",52%
same,Reduction of CFV's,"[3]; 0.1 mg/kg intravenously, second hour",81%
same,Reduction of CFV's,"[3]; 0.1 mg/kg intravenously, third hour",89%
same,Reduction of CFV's,"[3]; 0.2 mg/kg intravenously, first hour",75%
same,Reduction of CFV's,"[3]; 0.2 mg/kg intravenously, second hour",96%
same,Reduction of CFV's,"[3]; 0.2 mg/kg intravenously, third hour",99%
same,Reduction of CFV's,"[3]; 0.3 mg/kg intraduodenally, first hour",23%
same,Reduction of CFV's,"[3]; 0.3 mg/kg intraduodenally, second hour",66%
same,Reduction of CFV's,"[3]; 0.3 mg/kg intraduodenally, third hour",78%
same,antithrombotic activity,"[3]; dog, in vivo",powerful antithrombotic activity
same,Inhibition of aggregation,[4]; [8],93%
same,Inhibition of aggregation,[4]; [9],88%
same,Inhibition of aggregation,[4]; [10],59%
same,Inhibition of aggregation,[4]; [11],16%
same,Inhibition of aggregation,[4]; [12],46%
same,Inhibition of aggregation,[4]; [13],83%
same,Inhibition of aggregation,[4]; [14],33%
same,Inhibition of aggregation,[4]; [15],18%
same,Inhibition of aggregation,"[4]; 1 mg/kg orally, n=6, after 1 h",76%
same,Inhibition of aggregation,"[4]; 1 mg/kg orally, n=6, after 4 h",97%
same,Inhibition of aggregation,"[4]; 1 mg/kg orally, n=6, after 8 h",86%
same,Inhibition of aggregation,[4]; [16],70%
same,Inhibition of aggregation,"[4]; 2 mg/kg orally, n=8, after 1 h",64%
same,Inhibition of aggregation,"[4]; 2 mg/kg orally, n=8, after 4 h",86%
same,Inhibition of aggregation,"[4]; 2 mg/kg orally, n=8, after 8 h",78%
same,Inhibition of aggregation,[4]; [17],49%
same,efficacy as inhibitor of platelet aggregation,"[4]; in words, ADP- and collagen-induced",pronounced efficacy
same,Inhibition of aggregation,[5]; [8],27%
same,Inhibition of aggregation,[5]; [9],26%
same,Inhibition of aggregation,[5]; [10],18%
same,Inhibition of aggregation,[5]; [11],0%
same,Inhibition of aggregation,[5]; [12],8%
same,Inhibition of aggregation,[5]; [13],19%
same,Inhibition of aggregation,[5]; [14],5%
same,Inhibition of aggregation,[5]; [15],0%
same,Inhibition of aggregation,"[5]; 1 mg/kg orally, n=6, after 1 h",36%
same,Inhibition of aggregation,"[5]; 1 mg/kg orally, n=6, after 4 h",67%
same,Inhibition of aggregation,"[5]; 1 mg/kg orally, n=6, after 8 h",50%
same,Inhibition of aggregation,[5]; [16],11%
same,Inhibition of aggregation,"[5]; 2 mg/kg orally, n=8, after 1 h",28%
same,Inhibition of aggregation,"[5]; 2 mg/kg orally, n=8, after 4 h",65%
same,Inhibition of aggregation,"[5]; 2 mg/kg orally, n=8, after 8 h",60%
same,Inhibition of aggregation,[5]; [17],20%
same,maximal prolongation of bleeding time,"[6]; 0.5 mg/kg intravenous, at 4 hours",68%
same,maximal prolongation of bleeding time,"[6]; 2 mg/kg oral, at 2 hours",122%
same,bleeding times,[6]; at the lower oral doses (0.5 and 1 mg/kg),not significantly changed
same,hemodynamic parameters recorded during the test,[7],not significantly changed
"CCOC(=O)C[C@@H](NC(=O)CN1C(=O)N[C@](C)(c2ccc(C(=N)N)cc2)C1=O)c1ccccc1 [ethyl (R)-3-(2-((R)-4-(4-(amino-imino-methyl)phenyl)-4-methyl-2,5-dioxo-imidazolidin-1-yl)acetylamino)-3-phenylpropionate]",solid state form,[1],amorphous and cannot be obtained in the crystalline state
